tested on: Monocots; test: Herbicidal activity, preemergence, monocot weeds (Table II); assay type: in vivo; details: pre-emergence, 336 h, 2 lb./A., about 2 weeks, read-out: % control (percent of plants killed)
Protocol: (§1) Using the procedure described below, diphenyl ethers were evaluated for control of the following weeds: […]
(§2) barnyardgrass (Echinochloa crusgalli) crabgrass (Digitaria spp.) nutsedge (Cyperus esculentus)
(§3) At 2 and 4 pounds per acre:
(§4) **Bermudagrass (Cynodon dactylon)
(§5) *downy brome (Bromus tectorum) foxtail (Setaria faberii)
(§6) Johnsongrass (Sorghum halepense) […]
(§7) quackgrass (Agropyron repens)
(§8) *ryegrass (Lolium perenne)
(§9) *yellow millet (Panicum miliaceum)
(§10) The following test procedure is employed. Seeds of selected crops and weeds are planted in soil in flats. For preemergence tests, the flats are treated with the test compound immediately after the planting. For postemergence tests, the seeds are allowed to germinate, and after 2 weeks the flats are treated with the test compound. The compound to be evaluated is dissolved in acetone, diluted with water, and sprayed over the flats using a carrier volume equivalent to 50 gallons per acre at the rate of application (pounds per acre, lb/A.) specified in the tables. About 2 weeks after the application of the test compound, the state of growth of the plants is observed and the phytotoxic effect of the compound is evaluated. Table II gives the average percent control achieved by the test compounds in terms of the percent of the plants which are killed by the compounds.

Row | SMILES | pest or weed control at 2241.7 g/ha [%]
1 | CCC(=O)Nc1cc(Oc2ccc(C(F)(F)F)cc2Cl)ccc1[N+](=O)[O-] [Example 34] | 83
2 | O=[N+]([O-])c1ccc(Oc2ccc(C(F)(F)F)cc2Cl)cc1Cl [Example 37, 2-chloro-α,α,α-trifluoro-p-tolyl-3-chloro-4-nitrophenyl ether] | 100
3 | CN(C)c1cc(Oc2ccc(C(F)(F)F)cc2Cl)ccc1[N+](=O)[O-] [Example 20, 2-chloro-α,α,α-trifluoro-p-tolyl-3-dimethylamino-4-nitrophenyl ether] | 80

same assay, conditions: pre-emergence, 336 h, 4 lb./A., about 2 weeks, read-out: % control (percent of plants killed)

Row | SMILES | pest or weed control at 4483.4 g/ha [%]
4 | CCC(=O)Nc1cc(Oc2ccc(C(F)(F)F)cc2Cl)ccc1[N+](=O)[O-] [Example 34] | 35
5 | O=[N+]([O-])c1ccc(Oc2ccc(C(F)(F)F)cc2Cl)cc1Cl [Example 37, 2-chloro-α,α,α-trifluoro-p-tolyl-3-chloro-4-nitrophenyl ether] | 99
6 | CN(C)c1cc(Oc2ccc(C(F)(F)F)cc2Cl)ccc1[N+](=O)[O-] [Example 20, 2-chloro-α,α,α-trifluoro-p-tolyl-3-dimethylamino-4-nitrophenyl ether] | 88

tested on: Dicots; test: Herbicidal activity, preemergence, dicot weeds (Table II); assay type: in vivo; details: pre-emergence, 336 h, 2 lb./A., about 2 weeks, read-out: % control (percent of plants killed)
Protocol: as §1
(§11) bindweed (Convolvulus arvensis) curly dock (Remex crispus) velvetleaf (Abutilon theophrasti) wild mustard (Brassica haber)
(§12) At 2 and 4 pounds per acre: […]
(§13) cocklebur (Xanthium pensylvanicum)
(§14) **coffeeweed (Sesbania macrocarpa)
(§15) *curly dock (Rumex crispus)
(§16) *lambsquarters (Chenopodium album) morningglory (Ipomoea purpurea)
(§17) *pigweed (Amaranthus retroflexus)
(§18) **ragweed (Ambrosia artemisiifolia)
(§19) *smartweed (Polygonum pensylvanicum)
(§20) **tomato (Lycopersicon esculentum)
(§21) *wild carrot (Daucus carota)
(§22) *wild mustard (Brassica haber)
as §10

Row | SMILES | pest or weed control at 2241.7 g/ha [%]
7 | CCC(=O)Nc1cc(Oc2ccc(C(F)(F)F)cc2Cl)ccc1[N+](=O)[O-] [Example 34] | 85
8 | O=[N+]([O-])c1ccc(Oc2ccc(C(F)(F)F)cc2Cl)cc1Cl [Example 37, 2-chloro-α,α,α-trifluoro-p-tolyl-3-chloro-4-nitrophenyl ether] | 100
9 | CN(C)c1cc(Oc2ccc(C(F)(F)F)cc2Cl)ccc1[N+](=O)[O-] [Example 20, 2-chloro-α,α,α-trifluoro-p-tolyl-3-dimethylamino-4-nitrophenyl ether] | 93

same assay, conditions: pre-emergence, 336 h, 4 lb./A., about 2 weeks, read-out: % control (percent of plants killed)

Row | SMILES | pest or weed control at 4483.4 g/ha [%]
10 | CCC(=O)Nc1cc(Oc2ccc(C(F)(F)F)cc2Cl)ccc1[N+](=O)[O-] [Example 34] | 52
11 | O=[N+]([O-])c1ccc(Oc2ccc(C(F)(F)F)cc2Cl)cc1Cl [Example 37, 2-chloro-α,α,α-trifluoro-p-tolyl-3-chloro-4-nitrophenyl ether] | 100
12 | CN(C)c1cc(Oc2ccc(C(F)(F)F)cc2Cl)ccc1[N+](=O)[O-] [Example 20, 2-chloro-α,α,α-trifluoro-p-tolyl-3-dimethylamino-4-nitrophenyl ether] | 99

tested on: Monocots; test: Herbicidal activity, postemergence, monocot weeds (Table II); assay type: in vivo; details: post-emergence, 336 h, 2 lb./A., about 2 weeks, read-out: % control (percent of plants killed)
Protocol: as §1, §2, §3, §4, §5, §6, §7, §8, §9, §10

Row | SMILES | pest or weed control at 2241.7 g/ha [%]
13 | CCC(=O)Nc1cc(Oc2ccc(C(F)(F)F)cc2Cl)ccc1[N+](=O)[O-] [Example 34] | 47
14 | O=[N+]([O-])c1ccc(Oc2ccc(C(F)(F)F)cc2Cl)cc1Cl [Example 37, 2-chloro-α,α,α-trifluoro-p-tolyl-3-chloro-4-nitrophenyl ether] | 100
15 | CN(C)c1cc(Oc2ccc(C(F)(F)F)cc2Cl)ccc1[N+](=O)[O-] [Example 20, 2-chloro-α,α,α-trifluoro-p-tolyl-3-dimethylamino-4-nitrophenyl ether] | 80

same assay, conditions: post-emergence, 336 h, 4 lb./A., about 2 weeks, read-out: % control (percent of plants killed)

Row | SMILES | pest or weed control at 4483.4 g/ha [%]
16 | CCC(=O)Nc1cc(Oc2ccc(C(F)(F)F)cc2Cl)ccc1[N+](=O)[O-] [Example 34] | 32
17 | O=[N+]([O-])c1ccc(Oc2ccc(C(F)(F)F)cc2Cl)cc1Cl [Example 37, 2-chloro-α,α,α-trifluoro-p-tolyl-3-chloro-4-nitrophenyl ether] | 92
18 | CN(C)c1cc(Oc2ccc(C(F)(F)F)cc2Cl)ccc1[N+](=O)[O-] [Example 20, 2-chloro-α,α,α-trifluoro-p-tolyl-3-dimethylamino-4-nitrophenyl ether] | 78

tested on: Dicots; test: Herbicidal activity, postemergence, dicot weeds (Table II); assay type: in vivo; details: post-emergence, 336 h, 2 lb./A., about 2 weeks, read-out: % control (percent of plants killed)
Protocol: as §1, §11, §12, §13, §14, §15, §16, §17, §18, §19, §20, §21, §22, §10

Row | SMILES | pest or weed control at 2241.7 g/ha [%]
19 | CCC(=O)Nc1cc(Oc2ccc(C(F)(F)F)cc2Cl)ccc1[N+](=O)[O-] [Example 34] | 90
20 | O=[N+]([O-])c1ccc(Oc2ccc(C(F)(F)F)cc2Cl)cc1Cl [Example 37, 2-chloro-α,α,α-trifluoro-p-tolyl-3-chloro-4-nitrophenyl ether] | 100
21 | CN(C)c1cc(Oc2ccc(C(F)(F)F)cc2Cl)ccc1[N+](=O)[O-] [Example 20, 2-chloro-α,α,α-trifluoro-p-tolyl-3-dimethylamino-4-nitrophenyl ether] | 97

same assay, conditions: post-emergence, 336 h, 4 lb./A., about 2 weeks, read-out: % control (percent of plants killed)

Row | SMILES | pest or weed control at 4483.4 g/ha [%]
22 | CCC(=O)Nc1cc(Oc2ccc(C(F)(F)F)cc2Cl)ccc1[N+](=O)[O-] [Example 34] | 89
23 | O=[N+]([O-])c1ccc(Oc2ccc(C(F)(F)F)cc2Cl)cc1Cl [Example 37, 2-chloro-α,α,α-trifluoro-p-tolyl-3-chloro-4-nitrophenyl ether] | 100
24 | CN(C)c1cc(Oc2ccc(C(F)(F)F)cc2Cl)ccc1[N+](=O)[O-] [Example 20, 2-chloro-α,α,α-trifluoro-p-tolyl-3-dimethylamino-4-nitrophenyl ether] | 88

tested on: corn; test: Crop tolerance, corn; assay type: in vivo; details: postemergence; 50% or less kill of crop at rates giving more than 50% kill of weeds
Protocol: as §10
(§23) Following the general test procedure of Example 73, diphenyl ethers are evaluated for significant tolerance (as shown by 50% or less kill of the test crop at levels of application which give more than 50% kill of many or all of the weeds of Example 73) towards some or all of the following common agronomic crops (not all compounds tested against all crops): alfalfa, snapbeans, corn, cotton, cucumbers, peanuts, rape, rice, safflower, soybeans, tomatoes, and wheat.

Row | SMILES | Tolerance to corn
25 | CCC(=O)Nc1cc(Oc2ccc(C(F)(F)F)cc2Cl)ccc1[N+](=O)[O-] [Example 34] | Tolerance

same assay, conditions: preemergence; 50% or less kill of crop at rates giving more than 50% kill of weeds

Row | SMILES | Tolerance to corn
26 | CCC(=O)Nc1cc(Oc2ccc(C(F)(F)F)cc2Cl)ccc1[N+](=O)[O-] [Example 34] | Tolerance

tested on: peanuts; test: Crop tolerance, peanuts; assay type: in vivo; details: postemergence; 50% or less kill of crop at rates giving more than 50% kill of weeds
Protocol: as §10, §23

Row | SMILES | Tolerance to peanuts
27 | CCC(=O)Nc1cc(Oc2ccc(C(F)(F)F)cc2Cl)ccc1[N+](=O)[O-] [Example 34] | Tolerance
28 | O=[N+]([O-])c1ccc(Oc2ccc(C(F)(F)F)cc2Cl)cc1Cl [Example 37, 2-chloro-α,α,α-trifluoro-p-tolyl-3-chloro-4-nitrophenyl ether] | Tolerance

same assay, conditions: preemergence; 50% or less kill of crop at rates giving more than 50% kill of weeds

Row | SMILES | Tolerance to peanuts
29 | CCC(=O)Nc1cc(Oc2ccc(C(F)(F)F)cc2Cl)ccc1[N+](=O)[O-] [Example 34] | Tolerance

tested on: rice; test: Crop tolerance, rice; assay type: in vivo; details: postemergence or on transplanted rice; 50% or less kill of crop at rates giving more than 50% kill of weeds
Protocol: as §10, §23

Row | SMILES | Tolerance to rice
30 | CCC(=O)Nc1cc(Oc2ccc(C(F)(F)F)cc2Cl)ccc1[N+](=O)[O-] [Example 34] | Tolerance
31 | CN(C)c1cc(Oc2ccc(C(F)(F)F)cc2Cl)ccc1[N+](=O)[O-] [Example 20, 2-chloro-α,α,α-trifluoro-p-tolyl-3-dimethylamino-4-nitrophenyl ether] | Tolerance

same assay, conditions: preemergence; 50% or less kill of crop at rates giving more than 50% kill of weeds

Row | SMILES | Tolerance to rice
32 | CCC(=O)Nc1cc(Oc2ccc(C(F)(F)F)cc2Cl)ccc1[N+](=O)[O-] [Example 34] | Tolerance

tested on: soybeans; test: Crop tolerance, soybeans; assay type: in vivo; details: postemergence or layby; 50% or less kill of crop at rates giving more than 50% kill of weeds
Protocol: as §10, §23

Row | SMILES | Tolerance to soybeans
33 | CCC(=O)Nc1cc(Oc2ccc(C(F)(F)F)cc2Cl)ccc1[N+](=O)[O-] [Example 34] | Tolerance

same assay, conditions: preemergence; 50% or less kill of crop at rates giving more than 50% kill of weeds

Row | SMILES | Tolerance to soybeans
34 | CCC(=O)Nc1cc(Oc2ccc(C(F)(F)F)cc2Cl)ccc1[N+](=O)[O-] [Example 34] | Tolerance

tested on: wheat; test: Crop tolerance, wheat; assay type: in vivo; details: postemergence; 50% or less kill of crop at rates giving more than 50% kill of weeds
Protocol: as §10, §23

Row | SMILES | Tolerance to wheat
35 | CCC(=O)Nc1cc(Oc2ccc(C(F)(F)F)cc2Cl)ccc1[N+](=O)[O-] [Example 34] | Tolerance

same assay, conditions: preemergence; 50% or less kill of crop at rates giving more than 50% kill of weeds

Row | SMILES | Tolerance to wheat
36 | CCC(=O)Nc1cc(Oc2ccc(C(F)(F)F)cc2Cl)ccc1[N+](=O)[O-] [Example 34] | Tolerance

Source: patent USRE31731E, “Herbicidal 4-trifluoromethyl-4-nitrodiphenyl ethers” (priority 1978, dated 1984)
